The text below walks through data of US20230340012A1, “NATURAL AND SYNTHETIC COMPOUNDS FOR TREATING CANCER AND OTHER DISEASES” (PACIFIC ARROW LIMITED, priority 2009, published 2023).

For the series, the system named is cancer cells. Nature of the series: MTT cytotoxic assay of esterification products (Cytotoxicity activity). In kind it is cell-based, human. In a few lines:
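Cytotoxicity was read by MTT (Carmichael method, modified), with cells seeded 24 h ahead of treatment. Sixteen human cancer lines spanning bone, lung, bladder, ovary, colon, pancreas, prostate, skin, mouth, kidney, breast, liver, brain, leukemia and cervix were used. Test samples were acyl chloride esterification products of triterpenes, as mixtures or HPLC-purified compounds.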

Where [1] appears, read: E4A esterified with 2-propenoyl chloride (Ppe = Propenoyl), compounds isolated with HPLC.
Where [2] appears, read: E4A esterified with Propionyl chloride (Ppi = Propionyl), compounds isolated with HPLC.
[3] abbreviates: E4A esterified with benzoyl chloride (Ben = benzoyl), compounds isolated with HPLC.
The mark [4] stands for this setting: esterification products of core compound E4A with (2E)-2-pentenoyl chloride (2pe = 2-pentenoyl).
Setting [5] is: esterification products of core compound E4A with Butyryl chloride (But = Butyryl).
Setting [6] is: esterification products of core compound E4A with Decanoyl chloride (Dec = Decanoyl).
Setting [7] is: esterification products of core compound E4A with Isobutyryl chloride (Iso = Isobutyryl).
The mark [8] stands for this setting: esterification products of core compound E4A with Myristoyl chloride (Myr = Myristoyl).
Where [9] appears, read: esterification products of core compound E4A with Octanoyl chloride (Oct = Octanoyl).

Each structure is given as a SMILES string.

`CC1(C)CC2C3=CCC4C5(C)CCC(OC(=O)c6ccccc6)C(C)(COC(=O)c6ccccc6)C5CCC4(C)C3(C)CC(OC(=O)c3ccccc3)C2(COC(=O)c2ccccc2)C(O)C1OC(=O)c1ccccc1` (stereo not drawn) [Compound K17]: the Cytotoxicity activity result is, setting by setting: under setting [1], “weak”; under setting [2], “weak”; under setting [3], “weak”; under setting [4], “weak”; under setting [5], “weak”; under setting [6], “weak”. Also, the Cytotoxicity activity entry is “weak” under setting [7], “weak” under setting [8] and “weak” under setting [9].
With `CC1(C)CC2C3=CCC4C5(C)CCC(OC(=O)c6ccccc6)C(C)(COC(=O)c6ccccc6)C5CCC4(C)C3(C)CC(OC(=O)c3ccccc3)C2(COC(=O)c2ccccc2)C(OC(=O)c2ccccc2)C1O` (stereo not drawn) [Compound K18], the Cytotoxicity activity entry is listed as “weak” under setting [1]; “weak” under setting [2]; “weak” under setting [3]; “weak” under setting [4]; “weak” under setting [5]; “weak” under setting [6]. The Cytotoxicity activity result runs as follows: under setting [7], “weak”; under setting [8], “weak”; under setting [9], “weak”.
On to `CC1(C)CC2C3=CCC4C5(C)CCC(OC(=O)c6ccccc6)C(C)(COC(=O)c6ccccc6)C5CCC4(C)C3(C)CC(OC(=O)c3ccccc3)C2(COC(=O)c2ccccc2)C(OC(=O)c2ccccc2)C1OC(=O)c1ccccc1` (stereo not drawn) [Compound K19], for which the Cytotoxicity activity result was “none” under setting [1]; “none” under setting [2]; “none” under setting [3]; “none” under setting [4]; “none” under setting [5]; “none” under setting [6]. The Cytotoxicity activity entry is recorded as “none” under setting [7], “none” under setting [8] and “none” under setting [9].
Turning to `CC1(C)CC2C3=CCC4C5(C)CCC(O)C(C)(CO)C5CCC4(C)C3(C)CC(O)C2(COC(=O)c2ccccc2)C(OC(=O)c2ccccc2)C1OC(=O)c1ccccc1` (stereo not drawn) [Compound K20], the Cytotoxicity activity entry is recorded as “moderate” under setting [1]; “moderate” under setting [2]; “moderate” under setting [3]; “moderate” under setting [4]; “moderate” under setting [5]; “moderate” under setting [6]. In addition, the Cytotoxicity activity entry under setting [7] is listed as “moderate”, the Cytotoxicity activity result under setting [8] is “moderate” and the Cytotoxicity activity result under setting [9] is on record as “moderate”.
Regarding `CC1(C)CC2C3=CCC4C5(C)CCC(O)C(C)(COC(=O)c6ccccc6)C5CCC4(C)C3(C)CC(O)C2(CO)C(OC(=O)c2ccccc2)C1OC(=O)c1ccccc1` (stereo not drawn) [Compound K21], the Cytotoxicity activity entry is, setting by setting: under setting [1], “moderate”; under setting [2], “moderate”; under setting [3], “moderate”; under setting [4], “moderate”; under setting [5], “moderate”; under setting [6], “moderate”. The Cytotoxicity activity entry under setting [7] is on record as “moderate”, the Cytotoxicity activity result under setting [8] was “moderate” and the Cytotoxicity activity entry under setting [9] is on record as “moderate”.
With `CC1(C)CC2C3=CCC4C5(C)CCC(O)C(C)(CO)C5CCC4(C)C3(C)CC(OC(=O)c3ccccc3)C2(CO)C(OC(=O)c2ccccc2)C1OC(=O)c1ccccc1` (stereo not drawn) [Compound K22], the Cytotoxicity activity result runs as follows: under setting [1], “moderate”; under setting [2], “moderate”; under setting [3], “moderate”; under setting [4], “moderate”; under setting [5], “moderate”; under setting [6], “moderate”. Besides, the Cytotoxicity activity entry is, setting by setting: under setting [7], “moderate”; under setting [8], “moderate”; under setting [9], “moderate”.
